Test results published in PubChem BioAssay (NCI).
Several values for one entry are separate records, joined by “and”; a condition that tells them apart may be missing. Equal values may be shown once.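 Each compound was tested at five concentrations against cells in 96-well plates for 48 hours. At the GI50, growth is halved. The concentration for full growth arrest is given as TGI.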

Tests used:
Test in all cases: NCI anticancer screen, dose series, 48 h
EKVX NSCLC = tested on: EKVX NSCLC
HOP-62 NSCLC = tested on: HOP-62 NSCLC
HOP-92 NSCLC = tested on: HOP-92 NSCLC
HS 578T breast = tested on: HS 578T breast
K-562 leukemia = tested on: K-562 leukemia
NCI-H23 lung = tested on: NCI-H23 lung
NCI-H460 lung = tested on: NCI-H460 lung
SN12C renal = tested on: SN12C renal
SNB-19 CNS = tested on: SNB-19 CNS
CCRF-CEM leukemia = tested on: CCRF-CEM leukemia

C/C(=N\NC(=S)N1CCCCCC1)c1ccccn1
GI50 (EKVX NSCLC): 0.053 µM
TGI (EKVX NSCLC): 1.84 µM and 3.34 µM
GI50 (HOP-62 NSCLC): 0.0381 µM
TGI (HOP-62 NSCLC): 2.4 µM and 3.98 µM
GI50 (HOP-92 NSCLC): 0.217 µM
TGI (HOP-92 NSCLC): 0.3 µM
TGI (HS 578T breast): 3.85 µM
TGI (K-562 leukemia): 1.92 µM and 4.53 µM
GI50 (NCI-H23 lung): < 0.0182 µM
TGI (NCI-H23 lung): 5.85 µM and 6.33 µM
GI50 (NCI-H460 lung): 0.0421 µM
TGI (NCI-H460 lung): 1.47 µM and 2.22 µM
GI50 (SN12C renal): 0.0246 µM
TGI (SN12C renal): 4.31 µM and 5.6 µM
GI50 (SNB-19 CNS): 0.101 µM
TGI (SNB-19 CNS): 4.38 µM and 6.44 µM

CC(C)OC(=O)[C@H](C)NP(=O)(OC[C@H]1O[C@@H](n2ccc(=O)[nH]c2=O)[C@](C)(F)[C@@H]1O)Oc1ccccc1 (stereo partly drawn)
GI50 (CCRF-CEM leukemia): > 100 µM
TGI (CCRF-CEM leukemia): > 100 µM
GI50 (EKVX NSCLC): > 100 µM
TGI (EKVX NSCLC): > 100 µM
GI50 (HOP-62 NSCLC): > 100 µM
TGI (HOP-62 NSCLC): > 100 µM
GI50 (HOP-92 NSCLC): > 100 µM
TGI (HOP-92 NSCLC): > 100 µM
GI50 (HS 578T breast): > 100 µM
TGI (HS 578T breast): > 100 µM
GI50 (NCI-H23 lung): > 100 µM
TGI (NCI-H23 lung): > 100 µM
GI50 (NCI-H460 lung): > 100 µM
TGI (NCI-H460 lung): > 100 µM
GI50 (SN12C renal): > 100 µM
TGI (SN12C renal): > 100 µM
GI50 (SNB-19 CNS): > 100 µM
TGI (SNB-19 CNS): > 100 µM

O=C(Nc1cc(C(F)(F)F)ccc1Cl)c1cccc(NC2=C(Cl)C(=O)N(Cc3ccccc3)C2=O)c1
GI50 (CCRF-CEM leukemia): 2.71 µM
TGI (CCRF-CEM leukemia): > 100 µM
GI50 (EKVX NSCLC): 53 µM
TGI (EKVX NSCLC): > 100 µM
GI50 (HOP-62 NSCLC): > 100 µM
TGI (HOP-62 NSCLC): > 100 µM
GI50 (HOP-92 NSCLC): 19.1 µM
TGI (HOP-92 NSCLC): > 100 µM
GI50 (HS 578T breast): 53.7 µM
TGI (HS 578T breast): > 100 µM
GI50 (K-562 leukemia): 4.23 µM
TGI (K-562 leukemia): > 100 µM
GI50 (NCI-H460 lung): 38.2 µM
TGI (NCI-H460 lung): > 100 µM
GI50 (SN12C renal): 32.1 µM
TGI (SN12C renal): > 100 µM
GI50 (SNB-19 CNS): > 100 µM
TGI (SNB-19 CNS): > 100 µM

CC(C)=CCc1cc2c(cc1O)OC[C@H]1c3cc4c(cc3O[C@@H]21)OCO4
TGI (CCRF-CEM leukemia): 80.8 µM
TGI (EKVX NSCLC): 76.9 µM
TGI (HOP-62 NSCLC): > 100 µM
TGI (HOP-92 NSCLC): > 100 µM
TGI (HS 578T breast): 75.5 µM
TGI (K-562 leukemia): > 100 µM
TGI (NCI-H23 lung): 96.3 µM
TGI (NCI-H460 lung): 44.5 µM
TGI (SNB-19 CNS): > 100 µM

O=C(/C=C/C=C/c1ccccc1)c1ccccc1
TGI (EKVX NSCLC): 28.6 µM
TGI (HOP-92 NSCLC): 39.1 µM
TGI (HS 578T breast): 55.4 µM
TGI (K-562 leukemia): 66.2 µM
TGI (NCI-H460 lung): 49.5 µM
TGI (SN12C renal): 29.7 µM
TGI (SNB-19 CNS): 44.4 µM

Cc1cc2cc3c(=O)[nH]c(=O)[nH]c3nc2cc1C
TGI (EKVX NSCLC): > 100 µM
TGI (HOP-62 NSCLC): > 100 µM
TGI (HOP-92 NSCLC): > 100 µM
TGI (HS 578T breast): > 100 µM
TGI (K-562 leukemia): > 100 µM
TGI (NCI-H23 lung): > 100 µM
TGI (NCI-H460 lung): > 100 µM
TGI (SN12C renal): > 100 µM
TGI (SNB-19 CNS): > 100 µM

COc1ccc(Cn2c(N)c(S(=O)(=O)c3ccc(Cl)cc3)c3nc(C#N)c(C#N)nc32)cc1
GI50 (EKVX NSCLC): > 50 µM
TGI (EKVX NSCLC): > 50 µM
GI50 (HOP-62 NSCLC): > 50 µM
TGI (HOP-62 NSCLC): > 50 µM
GI50 (HOP-92 NSCLC): 11.1 µM
TGI (HOP-92 NSCLC): > 50 µM
GI50 (HS 578T breast): 14.6 µM
TGI (HS 578T breast): > 50 µM
GI50 (K-562 leukemia): > 50 µM
TGI (K-562 leukemia): > 50 µM
GI50 (NCI-H23 lung): 17 µM
TGI (NCI-H23 lung): > 50 µM
GI50 (NCI-H460 lung): 2.94 µM
TGI (NCI-H460 lung): > 50 µM
GI50 (SN12C renal): 1.45 µM
TGI (SN12C renal): 17.9 µM
GI50 (SNB-19 CNS): 18 µM
TGI (SNB-19 CNS): > 50 µM

COc1cc(/C=C\c2cc(OC)c(OC)c(OC)c2)cc(N/C=C\C(=O)c2cc(OC)c(OC)c(OC)c2)c1OC
GI50 (CCRF-CEM leukemia): 2.93 µM
TGI (CCRF-CEM leukemia): > 100 µM
GI50 (HOP-62 NSCLC): 2.46 µM
TGI (HOP-62 NSCLC): > 100 µM
GI50 (HOP-92 NSCLC): 1.14 µM
TGI (HOP-92 NSCLC): 6.56 µM
GI50 (HS 578T breast): 2.76 µM
TGI (HS 578T breast): > 100 µM
GI50 (K-562 leukemia): 3.38 µM
TGI (K-562 leukemia): > 100 µM
GI50 (NCI-H23 lung): 4.22 µM
TGI (NCI-H23 lung): > 100 µM
GI50 (NCI-H460 lung): 3.93 µM
TGI (NCI-H460 lung): > 100 µM
GI50 (SN12C renal): 4.03 µM
TGI (SN12C renal): > 100 µM
GI50 (SNB-19 CNS): 4.49 µM
TGI (SNB-19 CNS): > 100 µM
